Test results: paper PMC3901304 (ACS medicinal chemistry letters, 2013)

Tested on: T. gondii cells in culture
Assay: Toxoplasma cell culture study
Format: cell-based, Toxoplasma gondii
Settings: for T. gondii in cells at Day 4: no drug control 1140000; for T. gondii in media at Day 4: no drug control 3710000

Structure (SMILES) | effect on T. gondii in culture compared with PM (3 at 5 μM versus PM at 3 μM) | T. gondii in cells at Day 4 (compound at 5 μM) | T. gondii in media at Day 4 (compound at 5 μM) | T. gondii in cells at Day 4 (PM at 3 μM) | T. gondii in media at Day 4 (PM at 3 μM)
Nc1nc2[nH]c3cccc(Sc4cccc5ccccc45)c3c2c(=O)[nH]1 [Compound 3] | equivalent to PM at 3 μM | <2500 | <25000 | – | –
Nc1nc2[nH]c3cccc(Sc4ccccc4)c3c2c(=O)[nH]1 [Compound 2] | – | 140000 | 100000 | – | –
Nc1nc2[nH]c3cccc(Sc4ccc5ccccc5c4)c3c2c(=O)[nH]1 [Compound 1] | – | 340000 | 2350000 | – | –
CCc1nc(N)nc(N)c1-c1ccc(Cl)cc1 [PM, pyrimethamine, reference compound] | – | – | – | <2500 | <25000
